For assay [1], the target named is T1, mGAT1 (Mus musculus, UniProt P31648).
T1 construct: gene Slc6a1; full-length transporter stably expressed in HEK293 cells
Kind of assay: [3H]GABA uptake, intact HEK293 cells. It is filed as cell-based. The text has this: [3H]GABA uptake, intact HEK293 cells on mGAT1

For assay [2], the target named is T2, mGAT3 (Mus musculus, UniProt P31649).
T2 construct: gene Slc6a13; full-length transporter stably expressed in HEK293 cells; mouse nomenclature, equivalent of hGAT-2
T2 sequence (P31649 1-602): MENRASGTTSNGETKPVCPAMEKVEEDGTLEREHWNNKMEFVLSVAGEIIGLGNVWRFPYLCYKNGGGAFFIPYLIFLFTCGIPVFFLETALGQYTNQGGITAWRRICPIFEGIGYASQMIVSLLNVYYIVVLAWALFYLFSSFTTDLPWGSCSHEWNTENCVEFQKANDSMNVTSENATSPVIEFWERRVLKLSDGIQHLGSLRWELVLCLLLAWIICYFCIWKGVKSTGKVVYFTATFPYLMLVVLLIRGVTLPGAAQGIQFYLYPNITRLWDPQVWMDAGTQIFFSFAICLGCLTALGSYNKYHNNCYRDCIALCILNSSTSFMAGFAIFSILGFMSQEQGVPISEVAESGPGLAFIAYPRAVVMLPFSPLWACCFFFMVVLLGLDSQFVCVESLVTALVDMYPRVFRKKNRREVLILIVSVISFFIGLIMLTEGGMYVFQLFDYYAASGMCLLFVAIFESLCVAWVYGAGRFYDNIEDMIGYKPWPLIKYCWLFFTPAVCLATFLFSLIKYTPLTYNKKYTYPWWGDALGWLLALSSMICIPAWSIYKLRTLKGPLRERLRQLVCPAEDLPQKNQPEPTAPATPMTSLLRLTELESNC
Kind of assay: [3H]GABA uptake, intact HEK293 cells. It counts as cell-based. The text has this: [3H]GABA uptake, intact HEK293 cells on mGAT3

Assay [3] has as its target T1, mGAT1. Kind of assay: competitive MS Binding Assay, NO711 marker, HEK293 membranes. An excerpt: competitive MS Binding Assay, NO711 marker, HEK293 membranes on mGAT1
Assay [4] has as its target T3, mGAT4 (Mus musculus, UniProt P31650).
T3 construct: gene Slc6a11; full-length transporter stably expressed in HEK293 cells
T3 sequence (P31650 1-627): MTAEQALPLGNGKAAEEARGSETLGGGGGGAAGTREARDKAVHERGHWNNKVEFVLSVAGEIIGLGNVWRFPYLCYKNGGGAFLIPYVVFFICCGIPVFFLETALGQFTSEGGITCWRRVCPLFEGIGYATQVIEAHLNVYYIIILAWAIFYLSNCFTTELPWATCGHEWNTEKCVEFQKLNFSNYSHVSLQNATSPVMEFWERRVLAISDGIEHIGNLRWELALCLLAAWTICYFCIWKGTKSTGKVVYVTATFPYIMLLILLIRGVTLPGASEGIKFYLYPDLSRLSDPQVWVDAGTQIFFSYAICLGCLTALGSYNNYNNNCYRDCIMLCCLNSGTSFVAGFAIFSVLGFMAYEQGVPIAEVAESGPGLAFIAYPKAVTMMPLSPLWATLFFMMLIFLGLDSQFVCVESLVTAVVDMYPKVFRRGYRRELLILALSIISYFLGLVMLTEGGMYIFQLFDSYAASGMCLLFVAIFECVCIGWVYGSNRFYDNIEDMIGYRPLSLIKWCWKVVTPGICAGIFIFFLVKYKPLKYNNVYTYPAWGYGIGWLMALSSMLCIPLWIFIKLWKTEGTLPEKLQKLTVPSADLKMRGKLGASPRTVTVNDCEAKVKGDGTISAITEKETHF
Kind of assay: [3H]GABA uptake, intact HEK293 cells. It is filed as cell-based. The text has this:
[3H]GABA uptake, intact HEK293 cells on mGAT4

Assay [5] deals with T4, mGAT2 (Mus musculus, UniProt P31651).
T4 construct: gene Slc6a12; full-length transporter stably expressed in HEK293 cells; mouse nomenclature, equivalent of hBGT-1
T4 sequence (P31651 1-614): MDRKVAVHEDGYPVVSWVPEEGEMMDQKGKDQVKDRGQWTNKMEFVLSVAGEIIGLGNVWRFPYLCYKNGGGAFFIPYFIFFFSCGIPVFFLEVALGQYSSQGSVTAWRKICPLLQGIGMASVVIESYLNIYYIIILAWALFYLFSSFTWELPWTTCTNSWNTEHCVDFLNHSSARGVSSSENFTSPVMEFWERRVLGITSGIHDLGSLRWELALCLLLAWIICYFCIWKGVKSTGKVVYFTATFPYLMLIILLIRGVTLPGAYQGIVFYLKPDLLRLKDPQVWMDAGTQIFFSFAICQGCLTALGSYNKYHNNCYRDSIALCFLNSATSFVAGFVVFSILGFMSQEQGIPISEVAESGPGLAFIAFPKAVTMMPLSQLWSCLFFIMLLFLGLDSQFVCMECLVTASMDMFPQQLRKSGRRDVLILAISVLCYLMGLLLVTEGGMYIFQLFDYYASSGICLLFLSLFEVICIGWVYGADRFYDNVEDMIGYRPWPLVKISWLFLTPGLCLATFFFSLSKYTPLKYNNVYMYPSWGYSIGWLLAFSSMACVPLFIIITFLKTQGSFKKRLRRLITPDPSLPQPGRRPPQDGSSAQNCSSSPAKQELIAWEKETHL
Kind of assay: [3H]GABA uptake, intact HEK293 cells. It is filed as cell-based. An excerpt:
[3H]GABA uptake, intact HEK293 cells on mGAT2

By IC50 is commonly meant the point on the concentration scale where inhibition reaches its midpoint. What is called Ki is a dissociation constant, usually derived from enzyme kinetics or from competition with a known ligand. A lower Ki goes with tighter binding. One may read the remaining activity as the activity still measured, relative to the control. Turning to `O=C(O)C1CCCN(CCC=C=C(c2ccccc2)c2ccccc2)C1` (racemic) [rac-11a, rac-[1-(5,5-Diphenylpenta-3,4-dien-1-yl)piperidine-3-carboxylic acid]], the IC50 in assay [1] was 24.5 µM; in assay [2], 129 µM; in assay [5] it was 178 µM. In addition, the Ki in assay [3] is 5.5 µM. This compound also had a remaining activity at 100 µM in assay [4] of 64%.

In assay [1], `O=C(O)C1CCCN(CCC=C=C(c2ccc(F)cc2)c2ccc(F)cc2)C1` (racemic) [rac-11c, rac-{1-[5,5-Bis(4-fluorophenyl)penta-3,4-dien-1-yl]piperidine-3-carboxylic acid}] gave an IC50 of 12.9 µM. Further, the remaining activity at 100 µM in assay [2] worked out at 50%; in assay [4], 63%. Further, the Ki in assay [3] is 3.24 µM.

The record behind these values is article doi:10.1101/2025.02.15.638425v1, “Synthesis and Biological Evaluation of Nipecotic Acid Derivatives with Terminally Double-Substituted Allenic Spacers as mGAT4 Inhibitors” (biorxiv, 2025).
